Patent US10421761B2, “Compounds for kinase modulation, and indications therefor” (Plexxikon Inc., priority 2013, dated 2019)
“Also recorded” adds a separate entry of the source. Read-outs that look alike come from different tables or passages of the source.

How the values were obtained:
BRAF V600E = target: T1, BRAF V600E (Homo sapiens, UniProt P15056, V600E); assay: BRAF V600E biochemical kinase activity assay (AlphaScreen, biotin-MEK1 substrate); settings: BRAF V600E biochemical inhibitory activity
T1 construct: purchased Upstate Biotechnology
T1 sequence (P15056 whole entry V600E): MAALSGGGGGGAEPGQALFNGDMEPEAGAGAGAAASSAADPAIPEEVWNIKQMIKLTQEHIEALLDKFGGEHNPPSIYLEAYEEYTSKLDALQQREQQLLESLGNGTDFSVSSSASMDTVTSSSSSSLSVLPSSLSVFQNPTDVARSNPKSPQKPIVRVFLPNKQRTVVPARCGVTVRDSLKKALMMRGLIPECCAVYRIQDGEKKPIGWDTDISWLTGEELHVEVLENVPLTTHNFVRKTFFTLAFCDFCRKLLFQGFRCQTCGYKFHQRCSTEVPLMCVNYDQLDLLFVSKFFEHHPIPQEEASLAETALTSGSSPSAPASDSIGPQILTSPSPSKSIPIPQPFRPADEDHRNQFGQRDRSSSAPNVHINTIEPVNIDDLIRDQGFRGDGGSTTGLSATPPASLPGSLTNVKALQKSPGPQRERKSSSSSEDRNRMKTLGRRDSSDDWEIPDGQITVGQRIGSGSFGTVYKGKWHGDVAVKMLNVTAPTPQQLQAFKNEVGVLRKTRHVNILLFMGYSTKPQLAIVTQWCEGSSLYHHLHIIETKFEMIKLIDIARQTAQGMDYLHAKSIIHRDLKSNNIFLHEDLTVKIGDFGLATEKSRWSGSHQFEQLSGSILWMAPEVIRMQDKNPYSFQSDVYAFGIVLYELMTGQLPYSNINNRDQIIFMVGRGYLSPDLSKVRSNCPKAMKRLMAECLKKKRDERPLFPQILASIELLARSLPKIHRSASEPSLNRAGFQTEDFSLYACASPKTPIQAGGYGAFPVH
Procedure: Compounds to be tested are diluted in dimethyl sulfoxide to a concentration of 0.1 mM. These are serially diluted 15 μL into 30 μL of dimethyl sulfoxide seven times in 96 well plates for a total of 8 dilution points, and for each dilution point 1 μL is added to a well of an assay plate. […] The reaction is started with addition of 10 μL of 200 μM ATP (i.e. final 100 μM ATP). After incubation of the kinase reaction for 45 minutes at room temperature, 5 μL/well of Stop Solution is added (25 mM Hepes pH 7.5, 100 mM EDTA, 0.01% BSA with donor beads (Streptavidin coated beads, Perkin Elmer), acceptor beads (Protein A coated, Perkin Elmer), and anti-phosphor MEK1/2 antibody (CellSignal), each at final concentration 10 μg/mL). The plates are incubated for 3 hours at room temperature and read on Envision reader (Perkin Elmer). Phosphorylation of Mek1 results in binding of the anti-phosphor-MEK1/2antibody and association of the donor and acceptor beads such that signal correlates with kinase activity. The signal versus compound concentration is used to determine the IC50.
The in vitro RAF kinase activities were determined by measuring phosphorylation of a biotinylated substrate peptide as described previously (Tsai, J. et al. Proc Natl Acad Sci USA 105, 3041-3046 (2008)). Compounds of formula (I), e.g., compound A, was also tested against a panel of 287 kinases at concentrations of 1 μM in duplicate. Kinases inhibited by over 50% were followed up by IC50 determination. The 287 kinases represent all major branches of the kinome phylogenetic tree. The inhibition screen of 287 kinases was carried out under contract as complementary panels at Invitrogen (Life Technologies, Wis., USA) SelectScreen™ profiling service, DiscoverX (CA, USA) KINOMEScan™ service, and Reaction Biology Corporation (PA, USA) Kinase HotSpot℠ service.

[1] = test system: IPC-298 (NRAS Q61L) cell line; assay: IPC-298 P-ERK cell activation assay (AlphaScreen); assay type: cell-based, human; settings: for EC50: Homo sapiens, P-ERK cell activation, IPC-298, read-out: Cell activity (EC50 μM) IPC-298_P-ERK
Procedure: (§1) B9 is a squamous cell carcinoma cell line expressing activated HRAS that was isolated from a DMBA/TPA-induced mouse model of skin carcinogenesis (Stoler, et al. The Journal of Cell Biology, 1993, 122(5), 1103-17). IPC-298 is a human melanoma cell line that expresses activated NRAS (Aubert, et al. International Journal of Cancer, 1993, 54(5), 784-92). To determine whether compounds induce phosphorylated ERK and MEK, cells are plated in a 96-well dish and treated with an 8-point titration of compound for one hour at 37° C. The media is then removed and the cells are incubated with lysis buffer containing protease and phosphatase inhibitors. Phosphorylated ERK and MEK in the resulting lysates is detected using AlphaScreen™ technology. To detect phosphorylated ERK, cell lysates are incubated with streptavidin-coated donor beads, anti-mouse IgG acceptor beads, a biotinylated anti-ERK1/2 rabbit antibody, and a mouse antibody that recognizes ERK1/2 only when it is phosphorylated on Thr202 and Tyr204. The biotinylated ERK1/2 antibody will bind to both the streptavidin-coated donor beads and to ERK1/2 (regardless of its phosphorylation state), and the phospho-ERK1/2 antibody will bind to the acceptor beads and to ERK1/2 that is phosphorylated at Thr202/Tyr204. Excitation of the beads with laser light at 680 nm produces singlet oxygen, which is rapidly quenched unless the beads are in close proximity. When ERK is phosphorylated, both antibodies can bind the same protein, bringing the donor and acceptor beads into close proximity, producing a signal that can be measured at 580 nm. MEK phosphorylation is detected using a similar approach, only with antibodies directed against total MEK1/2 and MEK1/2 that is phosphorylated at Ser217 and Ser221.
(§2) Phospho-ERK AlphaScreen® assay. To determine the effects of compound treatment upon phosphorylation of ERK1/2, cells were plated in a 96-well dish and treated with an 8-point titration of compound for one hour at 37° C. before lysis. To detect pERK, cell lysates were incubated with streptavidin-coated AlphaScreen® donor beads, anti-mouse IgG AlphaScreen® acceptor beads, a biotinylated anti-ERK1/2 rabbit antibody, and a mouse antibody that recognizes ERK1/2 only when it is phosphorylated on Thr202 and Tyr204. The biotinylated ERK1/2 antibody binds to both the streptavidin-coated AlphaScreen® donor beads and to ERK1/2 (regardless of its phosphorylation state), and the phospho-ERK1/2 antibody binds to the acceptor beads and to ERK1/2 that is phosphorylated at Thr202/Tyr204. An increase in ERK1/2 phosphorylation at Thr202/Tyr204 brings the donor and acceptor AlphaScreen® beads into close proximity, generating a signal that can be quantified on an EnVision reader (Perkin Elmer).

[2] = test system: A375 (BRAF V600E) cell line; assay: A375 P-ERK inhibition assay (AlphaScreen); assay type: cell-based, human; settings: for IC50: Homo sapiens, A-375, A375_P-ERK
Procedure: as §2

B9 (HRAS Q61L) cell line = assay: B9 P-ERK cell activation assay (AlphaScreen); assay type: cell-based, mouse; settings: for EC50: Mus musculus, P-ERK cell activation, B9, numeric bounds, read-out: Cell activity (EC50 μM) B9_pERK
Procedure: as §1, §2

For `O=C(c1cccc(NS(=O)(=O)N2CCCC2)c1F)c1c[nH]c2ncnc(NCC(F)(F)F)c12` [P-2077, N-[2-fluoro-3-[4-(2,2,2-trifluoroethylamino)-7H-pyrrolo[2,3-d]pyrimidine-5-carbonyl]phenyl]pyrrolidine-1-sulfonamide], the IC50 (BRAF V600E) was 0.0001 to 1 µM, the EC50 ([1]; numeric bounds) was greater than 10 µM and the IC50 [2] was 0.0001 to 1 µM.
With `CCN(C)S(=O)(=O)Nc1cccc(-c2nc(C(C)(C)C)sc2-c2ccnc(N)n2)c1F` [P-0352, 5-(2-aminopyrimidin-4-yl)-2-tert-butyl-4-[3-[[ethyl(methyl)sulfamoyl]amino]-2-fluoro-phenyl]thiazole] the pERK activation (B9 (HRAS Q61L) cell line; RAS mutant cell line B9, one hour treatment) was “significantly reduced pERK activation; also recorded: markedly reduced pERK activation”, the pERK activation ([1]; RAS mutant cell line IPC-298, one hour treatment) was “significantly reduced pERK activation; also recorded: markedly reduced pERK activation” and the pERK inhibition ([2]; BRAF V600E cell line A375) was “preserving the potent inhibitory activity; also recorded: moderate decrease in pERK IC50”.
`O=C(c1c(F)ccc(NS(=O)(=O)N2CCCC2)c1F)c1c[nH]c2ncncc12` [P-2029, N-[2,4-difluoro-3-(7H-pyrrolo[2,3-d]pyrimidine-5-carbonyl)phenyl]pyrrolidine-1-sulfonamide] gave an EC50 (B9 (HRAS Q61L) cell line) greater than 10 µM, an EC50 ([1]; numeric bounds) greater than 10 µM and an IC50 [2] of 0.0001 to 1 µM.
`CC1(C)OCC(CNc2ncnc3[nH]cc(C(=O)c4cccc(NS(=O)(=O)N5CCCC5)c4F)c23)O1` (stereo not drawn) [P-2095, N-[3-[4-[(2,2-dimethyl-1,3-dioxolan-4-yl)methylamino]-7H-pyrrolo[2,3-d]pyrimidine-5-carbonyl]-2-fluoro-phenyl]pyrrolidine-1-sulfonamide] gave an EC50 (B9 (HRAS Q61L) cell line) greater than 10 µM, an EC50 ([1]; numeric bounds) greater than 10 µM and an IC50 [2] of 0.0001 to 1 µM.
Work on `CC(C)S(=O)(=O)Nc1ccc(F)c(C(=O)c2c[nH]c3ncnc(NCC4CC4)c23)c1F` [P-2047, N-[3-[4-(cyclopropylmethylamino)-7H-pyrrolo[2,3-d]pyrimidine-5-carbonyl]-2,4-difluoro-phenyl]propane-2-sulfonamide] yielded an IC50 (BRAF V600E) of 0.0001 to 1 µM and an IC50 [2] of 0.0001 to 1 µM.
Work on `O=C(c1cccc(NS(=O)(=O)N2CCCC2)c1F)c1c[nH]c2ncnc(NCCC(F)(F)F)c12` [P-2112, N-[2-fluoro-3-[4-(3,3,3-trifluoropropylamino)-7H-pyrrolo[2,3-d]pyrimidine-5-carbonyl]phenyl]pyrrolidine-1-sulfonamide] yielded an IC50 (BRAF V600E) of 0.0001 to 1 µM, an EC50 ([1]; numeric bounds) greater than 10 µM and an IC50 [2] of 0.0001 to 1 µM.
`CN(C)S(=O)(=O)Nc1cc(Cl)cc(C(=O)c2c[nH]c3ncc(-c4cnc(C5CC5)nc4)cc23)c1F` [P-2175, 3-[5-chloro-3-(dimethylsulfamoylamino)-2-fluoro-benzoyl]-5-(2-cyclopropylpyrimidin-5-yl)-1H-pyrrolo[2,3-b]pyridine] was tested, and the IC50 (BRAF V600E) was 0.0001 to 1 µM, the EC50 ([1]; numeric bounds) was greater than 10 µM and the IC50 [2] was 0.0001 to 1 µM.
With `Cc1cc(NS(=O)(=O)N2CCCC2)c(F)c(C(=O)c2c[nH]c3ncc(-c4cnc(C5CC5)nc4)cc23)c1` [P-2183, N-[3-[5-(2-cyclopropylpyrimidin-5-yl)-1H-pyrrolo[2,3-b]pyridine-3-carbonyl]-2-fluoro-5-methyl-phenyl]pyrrolidine-1-sulfonamide] the IC50 (BRAF V600E) was 0.0001 to 1 µM, the EC50 (B9 (HRAS Q61L) cell line) was greater than 10 µM and the EC50 ([1]; numeric bounds) was greater than 10 µM.
`COC(=O)N[C@@H](C)CNc1nccc(-c2sc(C(C)(C)C)nc2-c2cccc(NS(=O)(=O)N3CC[C@@H](F)C3)c2F)n1` [P-2138, methyl N-[(1S)-2-[[4-[2-tert-butyl-4-[2-fluoro-3-[[(3R)-3-fluoropyrrolidin-1-yl]sulfonylamino]phenyl]thiazol-5-yl]pyrimidin-2-yl]amino]-1-methyl-ethyl]carbamate] gave an IC50 (BRAF V600E) of 0.0001 to 1 µM, an EC50 (B9 (HRAS Q61L) cell line) greater than 10 µM and an IC50 [2] of 0.0001 to 1 µM.
In the case of `CN(C)S(=O)(=O)Nc1ccc(F)c(C(=O)c2c[nH]c3ncnc(NCC4CC4)c23)c1F` [P-2048, 4-(cyclopropylmethylamino)-5-[3-(dimethylsulfamoylamino)-2,6-difluoro-benzoyl]-7H-pyrrolo[2,3-d]pyrimidine], the IC50 (BRAF V600E) is reported as 0.0001 to 1 µM, the EC50 ([1]; numeric bounds) is reported as greater than 10 µM and the IC50 [2] is reported as 0.0001 to 1 µM.
Molecule `CC(C)S(=O)(=O)Nc1ccc(F)c(C(=O)c2c[nH]c3nccc(Cl)c23)c1F` [P-2013, N-[3-(4-chloro-1H-pyrrolo[2,3-b]pyridine-3-carbonyl)-2,4-difluoro-phenyl]propane-2-sulfonamide] has an IC50 (BRAF V600E) of 0.0001 to 1 µM and an IC50 [2] of 0.0001 to 1 µM.
`CCCC(C)S(=O)(=O)Nc1ccc(F)c(C(=O)c2c[nH]c3ncnc(NCC4CC4)c23)c1F` (stereo not drawn) [P-2051, N-[3-[4-(cyclopropylmethylamino)-7H-pyrrolo[2,3-d]pyrimidine-5-carbonyl]-2,4-difluoro-phenyl]pentane-2-sulfonamide] was tested, and the IC50 (BRAF V600E) was 0.0001 to 1 µM and the IC50 [2] was 0.0001 to 1 µM.
`CCN(C)S(=O)(=O)Nc1cc(Cl)cc(-c2cn(C(C)C)nc2-c2ccnc(NC[C@H](C)NC(=O)OC)n2)c1F` [P-2164, methyl N-[(1S)-2-[[4-[4-[5-chloro-3-[[ethyl(methyl)sulfamoyl]amino]-2-fluoro-phenyl]-1-isopropyl-pyrazol-3-yl]pyrimidin-2-yl]amino]-1-methyl-ethyl]carbamate] was tested, and the IC50 (BRAF V600E) was 0.0001 to 1 µM, the EC50 ([1]; numeric bounds) was greater than 10 µM and the IC50 [2] was 0.0001 to 1 µM.
In the case of `COC(=O)N[C@@H](C)CNc1nccc(-c2nn(C(C)C)cc2-c2cc(Cl)cc(NS(=O)(=O)N3CCCC3)c2F)n1` [P-2160, methyl N-[(1S)-2-[[4-[4-[5-chloro-2-fluoro-3-(pyrrolidin-1-ylsulfonylamino)phenyl]-1-isopropyl-pyrazol-3-yl]pyrimidin-2-yl]amino]-1-methyl-ethyl]carbamate], the IC50 (BRAF V600E) is reported as 0.0001 to 1 µM, the EC50 ([1]; class symbols) is reported as 0.0001 to 1 µM and the IC50 [2] is reported as 0.0001 to 1 µM.
`O=C(c1c(F)ccc(NS(=O)(=O)C2CCCC2)c1F)c1c[nH]c2ncncc12` [P-2028, N-[2,4-difluoro-3-(7H-pyrrolo[2,3-d]pyrimidine-5-carbonyl)phenyl]cyclopentanesulfonamide] gave an EC50 (B9 (HRAS Q61L) cell line) greater than 10 µM, an EC50 ([1]; numeric bounds) greater than 10 µM and an IC50 [2] greater than 10 µM.
`COC(=O)N[C@@H](C)CNc1nccc(-c2sc(-c3ccccc3)nc2-c2cccc(NS(=O)(=O)N3CC[C@@H](F)C3)c2F)n1` [P-2152, methyl N-[(1S)-2-[[4-[4-[2-fluoro-3-[[(3R)-3-fluoropyrrolidin-1-yl]sulfonylamino]phenyl]-2-phenyl-thiazol-5-yl]pyrimidin-2-yl]amino]-1-methyl-ethyl]carbamate] showed an IC50 (BRAF V600E) of 0.0001 to 1 µM, an EC50 ([1]; class symbols) of 0.0001 to 1 µM and an IC50 [2] of 0.0001 to 1 µM.
`Cc1nc2c(-c3sc(C(C)(C)C)nc3-c3cccc(NS(=O)(=O)N4CCCC4)c3F)ccnc2[nH]1` [P-2126, N-[3-[2-tert-butyl-5-(2-methyl-3H-imidazo[4,5-b]pyridin-7-yl)thiazol-4-yl]-2-fluoro-phenyl]pyrrolidine-1-sulfonamide] gave an IC50 (BRAF V600E) of 0.0001 to 1 µM, an EC50 (B9 (HRAS Q61L) cell line) greater than 10 µM and an IC50 [2] of 0.0001 to 1 µM.
